Assay results as given in patent publication US11952378B1, “Pyrrolo[2,3-c]isoquinoline-1,2-dione compounds as CK2 inhibitors” (KING FAISAL UNIVERSITY, priority 2023, dated 2024).
pIC50: −log10 of the molar value.

Legend:
PC3 (prostate) = test: In vitro cytotoxic activity assay (MTT), PC3; type: cell-based; conditions: Homo sapiens, Prostate cell; PC3 (prostate) cells, exposed for 96 hours; read-out: IC50, concentration eliciting 50% inhibition of cell proliferation
Protocol: (§1) Compounds 1-16 were screened for their in vitro cytotoxic behavior using a 3-(4,5-dimethyl-thiazol-2-yl)-2,5-diphenyltetrazolium bromide (MTT) assay against selected cancer human cell lines consisting of PC3 (prostate), HCT116 (colon), A375 (melanoma), H1299 (lung), MIAPaCa-2 (pancreas), HL60 (leukemia), MCF7 (breast), MDA-MB-231 (breast) (T. Mosmann, J. Immunol. Meth., 1983, 65, 55-63). The cells were cultured at 37° C. in RMPI1640 medium supplemented with 10% fetal bovine serum, 50 IU/mL penicillin, and 50 μg/mL streptomycin in a 5% CO2 incubator. All cells were sub-cultured 3 times/week by trypsinisation. Viable cells were seeded and allowed to adhere for 12 h before a test drug was added in 96-well plates at an initial density of 1.0×10^5 cells/mL. Tumor cell lines were separately exposed to various concentrations of the tested compounds followed by incubation at a temperature of 37° C. during 96 h inside a medium of fresh RMPI 1640. Cells were subsequently incubated at 37° C. using MTT at 0.5 mg/mL during 4 hours. After removal of supernatant, formazan crystals were dissolved in isopropanol and the optical density was measured at 570 nm. CX-4945 was used as a positive control.

HCT116 (colon) = test: In vitro cytotoxic activity assay (MTT), HCT116; type: cell-based; conditions: Homo sapiens, HCT-116; HCT116 (colon) cells, exposed for 96 hours; read-out: IC50, concentration eliciting 50% inhibition of cell proliferation
Protocol: as §1

A375 (melanoma) = test: In vitro cytotoxic activity assay (MTT), A375; type: cell-based; conditions: Homo sapiens, A-375; A375 (melanoma) cells, exposed for 96 hours; read-out: IC50, concentration eliciting 50% inhibition of cell proliferation
Protocol: as §1

H1299 (lung) = test: In vitro cytotoxic activity assay (MTT), H1299; type: cell-based; conditions: Homo sapiens, NCI-H1299; H1299 (lung) cells, exposed for 96 hours; read-out: IC50, concentration eliciting 50% inhibition of cell proliferation
Protocol: as §1

MIAPaCa-2 (pancreas) = test: In vitro cytotoxic activity assay (MTT), MIAPaCa-2; type: cell-based; conditions: Homo sapiens, MIA PaCa-2; MIAPaCa-2 (pancreas) cells, exposed for 96 hours; read-out: IC50, concentration eliciting 50% inhibition of cell proliferation
Protocol: as §1

HL60 (leukemia) = test: In vitro cytotoxic activity assay (MTT), HL60; type: cell-based; conditions: Homo sapiens, HL-60; HL60 (leukemia) cells, exposed for 96 hours; read-out: IC50, concentration eliciting 50% inhibition of cell proliferation
Protocol: as §1

MCF7 (breast) = test: In vitro cytotoxic activity assay (MTT), MCF7; type: cell-based; conditions: Homo sapiens; MCF7 (breast) cells, exposed for 96 hours; read-out: IC50, concentration eliciting 50% inhibition of cell proliferation
Protocol: as §1

MDA-MB-231 (breast) = test: In vitro cytotoxic activity assay (MTT), MDA-MB-231; type: cell-based; conditions: Homo sapiens; MDA-MB-231 (breast) cells, exposed for 96 hours; read-out: IC50, concentration eliciting 50% inhibition of cell proliferation
Protocol: as §1

[1] = target: T1, recombinant human CK2 (RRββ-holoenzyme) (Homo sapiens, UniProt P68400); test: CK2 Kinase Assay ([γ-33P]ATP, substrate peptide RRRDDDSDDD); type: biochemical; conditions: final ATP concentration 15 μM, 10 minutes at 30° C.; read-out: protein kinase CK2 IC50
T1 construct: purchased Millipore
T1 sequence (P68400 whole entry): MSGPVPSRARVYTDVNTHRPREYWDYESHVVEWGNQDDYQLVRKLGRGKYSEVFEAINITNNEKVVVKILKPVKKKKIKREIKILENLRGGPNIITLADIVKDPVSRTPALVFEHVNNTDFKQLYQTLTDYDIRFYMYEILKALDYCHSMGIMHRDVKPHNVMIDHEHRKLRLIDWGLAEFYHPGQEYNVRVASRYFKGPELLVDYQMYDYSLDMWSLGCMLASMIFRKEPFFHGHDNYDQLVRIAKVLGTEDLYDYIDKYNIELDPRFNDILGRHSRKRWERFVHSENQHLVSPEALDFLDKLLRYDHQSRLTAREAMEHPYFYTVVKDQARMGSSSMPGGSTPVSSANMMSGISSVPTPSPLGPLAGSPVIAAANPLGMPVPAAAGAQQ
T1 sequence (P67870 whole entry partner): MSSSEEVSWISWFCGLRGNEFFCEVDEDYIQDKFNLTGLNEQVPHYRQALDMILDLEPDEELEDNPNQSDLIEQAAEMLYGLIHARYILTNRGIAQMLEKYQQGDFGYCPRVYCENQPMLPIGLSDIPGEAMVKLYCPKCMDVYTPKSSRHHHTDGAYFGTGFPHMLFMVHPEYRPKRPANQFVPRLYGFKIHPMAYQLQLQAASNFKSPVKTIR
Protocol: CK2 Kinase Assay was conducted using the previously described protocol (Pierre F. et al; J. Med. Chem. 2011, 54, 635-654). The tested compounds in aqueous solution were added at a volume of 10 μL to a reaction mixture comprising 10 μL of assay dilution buffer (ADB; 20 mM MOPS, pH 7.2, 25 mM β-glycerol phosphate, 5 mM EGTA, 1 mM sodium orthovanadate, and 1 mM dithiothreitol), 10 μL of substrate peptide (RRRDDDSDDD, dissolved in ADB at a concentration of 1 mM), 10 μL of recombinant human CK2 (RRββ-holoenzyme, 25 ng dissolved in ADB; Millipore). Reactions were initiated by the addition of 10 μL of ATP solution (90% 75 mMMgCl2, 75 μM ATP (final ATP concentration: 15 μM) dissolved in ADB; 10% [γ-33P] ATP (stock 1 mCi/100 μL; 3000 Ci/mmol (Perkin-Elmer) and maintained for 10 minutes at 30° C. The reactions were quenched with 100 μL of 0.75% phosphoric acid and then transferred to and filtered through a phosphor cellulose filter plate (Millipore). After washing each well five times with 0.75% phosphoric acid, the plate was dried under vacuum for 5 min and, following the addition of 15 μL of scintillation fluid to each well, the residual radioactivity was measured using a Wallac luminescence counter. The IC50 values were derived from eight concentrations of test inhibitors.

O=C1Nc2nc(Nc3cccc(Cl)c3)c3cc(C(=O)O)ccc3c2C1=O [Compound 1, 5-((3-chlorophenyl)amino)-1,2-dioxo-2,3-dihydro-1H-pyrrolo[2,3-c]isoquinoline-7-carboxylic Acid] was tested, and the pIC50 (PC3 (prostate)) was 5.92, the pIC50 (HCT116 (colon)) was 5.89 and the pIC50 (A375 (melanoma)) was 5.57. The pIC50 (H1299 (lung)) was 5.72, the pIC50 (MIAPaCa-2 (pancreas)) was 5.89 and the pIC50 (HL60 (leukemia)) was 5.47. For the same molecule, the pIC50 (MCF7 (breast)) was 5.26, the pIC50 (MDA-MB-231 (breast)) was 5.39 and the pIC50 [1] was 7.26.
